Laboratory results from US10168342B2, “Lipid probes and uses thereof” (THE SCRIPPS RESEARCH INSTITUTE, priority 2015, dated 2019).
Where two headings read alike, the source gives them in different places.

Legend:
[1] = molecular target: T1, AEA-DA lipid probe targets in Neuro2a cells (Mus musculus, UniProt P01897)
T1 sequence (P01897 25-362): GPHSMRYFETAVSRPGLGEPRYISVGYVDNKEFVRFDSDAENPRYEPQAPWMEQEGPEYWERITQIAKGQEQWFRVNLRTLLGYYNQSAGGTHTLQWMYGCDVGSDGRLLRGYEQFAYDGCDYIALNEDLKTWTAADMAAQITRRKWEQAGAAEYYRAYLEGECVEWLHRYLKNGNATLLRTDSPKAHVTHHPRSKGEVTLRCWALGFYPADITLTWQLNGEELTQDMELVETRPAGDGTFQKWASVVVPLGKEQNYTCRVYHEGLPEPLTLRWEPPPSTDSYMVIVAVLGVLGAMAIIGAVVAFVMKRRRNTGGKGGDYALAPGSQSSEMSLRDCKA

[2] = molecular target: AEA-DA lipid probe targets in Neuro2a cells (Mus musculus, UniProt Q60864)
[3] = molecular target: T2, AEA-DA lipid probe targets in Neuro2a cells (Mus musculus, UniProt Q80WJ7)
T2 sequence (Q80WJ7 1-579): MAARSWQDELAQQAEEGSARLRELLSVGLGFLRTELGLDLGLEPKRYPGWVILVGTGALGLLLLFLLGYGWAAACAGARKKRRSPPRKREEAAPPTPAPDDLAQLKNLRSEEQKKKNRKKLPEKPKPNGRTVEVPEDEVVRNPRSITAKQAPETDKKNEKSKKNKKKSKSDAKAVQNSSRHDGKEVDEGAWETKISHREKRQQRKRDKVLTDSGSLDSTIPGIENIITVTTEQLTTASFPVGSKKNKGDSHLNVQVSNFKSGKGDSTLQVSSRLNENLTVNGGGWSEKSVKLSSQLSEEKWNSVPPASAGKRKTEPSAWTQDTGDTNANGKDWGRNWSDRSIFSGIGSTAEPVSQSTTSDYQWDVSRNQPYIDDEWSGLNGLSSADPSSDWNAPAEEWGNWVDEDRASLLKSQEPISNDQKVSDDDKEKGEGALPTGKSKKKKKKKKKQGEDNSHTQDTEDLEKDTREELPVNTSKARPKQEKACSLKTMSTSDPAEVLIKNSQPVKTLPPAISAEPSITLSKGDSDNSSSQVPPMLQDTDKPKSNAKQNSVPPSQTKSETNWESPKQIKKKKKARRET

[4] = molecular target: AEA-DA lipid probe targets in Neuro2a cells (Mus musculus, UniProt Q8BG32)
[5] = molecular target: AEA-DA lipid probe targets in Neuro2a cells (Mus musculus, UniProt Q8VE88)
[6] = molecular target: T3, AEA-DA lipid probe targets in Neuro2a cells (Mus musculus, UniProt Q91WS0)
T3 sequence (Q91WS0 1-108): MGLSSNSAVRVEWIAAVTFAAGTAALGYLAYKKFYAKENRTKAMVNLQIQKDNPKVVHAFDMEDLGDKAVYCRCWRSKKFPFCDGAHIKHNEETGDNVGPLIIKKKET

[7] = molecular target: T4, AEA-DA lipid probe targets in Neuro2a cells (Mus musculus, UniProt Q925I1)
T4 sequence (Q925I1 1-591): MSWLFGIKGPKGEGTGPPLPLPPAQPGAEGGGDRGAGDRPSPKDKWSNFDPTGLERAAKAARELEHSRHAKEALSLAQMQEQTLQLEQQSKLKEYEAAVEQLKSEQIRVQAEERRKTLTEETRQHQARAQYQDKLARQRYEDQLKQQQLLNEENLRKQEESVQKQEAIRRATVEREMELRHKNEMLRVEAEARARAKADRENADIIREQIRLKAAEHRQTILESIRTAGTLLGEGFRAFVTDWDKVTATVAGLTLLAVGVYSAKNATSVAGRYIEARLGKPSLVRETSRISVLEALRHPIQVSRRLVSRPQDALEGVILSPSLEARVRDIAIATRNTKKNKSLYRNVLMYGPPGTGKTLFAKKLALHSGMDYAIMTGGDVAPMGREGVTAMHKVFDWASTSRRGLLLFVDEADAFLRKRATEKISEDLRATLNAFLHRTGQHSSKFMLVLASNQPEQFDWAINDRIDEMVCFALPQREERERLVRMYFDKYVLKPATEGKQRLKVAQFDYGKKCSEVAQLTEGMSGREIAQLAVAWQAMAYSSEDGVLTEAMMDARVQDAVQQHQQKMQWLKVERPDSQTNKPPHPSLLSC

[8] = molecular target: T5, AEA-DA lipid probe targets in Neuro2a cells (Mus musculus, UniProt Q9D379)
T5 sequence (Q9D379 1-455): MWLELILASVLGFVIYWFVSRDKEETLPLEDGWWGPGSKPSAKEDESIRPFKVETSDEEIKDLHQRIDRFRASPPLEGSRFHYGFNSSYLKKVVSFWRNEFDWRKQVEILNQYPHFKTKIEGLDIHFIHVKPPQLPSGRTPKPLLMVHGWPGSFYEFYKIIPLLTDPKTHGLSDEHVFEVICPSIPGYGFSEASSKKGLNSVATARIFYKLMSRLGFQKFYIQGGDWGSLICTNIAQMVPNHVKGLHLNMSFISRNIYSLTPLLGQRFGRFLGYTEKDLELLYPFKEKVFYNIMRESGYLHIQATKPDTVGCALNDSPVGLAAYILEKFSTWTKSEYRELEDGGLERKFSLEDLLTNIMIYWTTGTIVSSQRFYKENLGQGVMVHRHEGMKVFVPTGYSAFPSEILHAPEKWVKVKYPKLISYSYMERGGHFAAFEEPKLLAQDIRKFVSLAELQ

[9] = molecular target: T6, AEA-DA lipid probe targets in Neuro2a cells (Mus musculus, UniProt Q9QY93)
T6 sequence (Q9QY93 1-170): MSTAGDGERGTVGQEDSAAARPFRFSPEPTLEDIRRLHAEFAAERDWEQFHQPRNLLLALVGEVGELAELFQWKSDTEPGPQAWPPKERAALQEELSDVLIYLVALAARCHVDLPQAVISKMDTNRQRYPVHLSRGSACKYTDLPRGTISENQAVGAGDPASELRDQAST

Sequence of AEA-DA lipid probe targets in Neuro2a cells (Mus musculus, UniProt Q8BG32) (Q8BG32 whole entry): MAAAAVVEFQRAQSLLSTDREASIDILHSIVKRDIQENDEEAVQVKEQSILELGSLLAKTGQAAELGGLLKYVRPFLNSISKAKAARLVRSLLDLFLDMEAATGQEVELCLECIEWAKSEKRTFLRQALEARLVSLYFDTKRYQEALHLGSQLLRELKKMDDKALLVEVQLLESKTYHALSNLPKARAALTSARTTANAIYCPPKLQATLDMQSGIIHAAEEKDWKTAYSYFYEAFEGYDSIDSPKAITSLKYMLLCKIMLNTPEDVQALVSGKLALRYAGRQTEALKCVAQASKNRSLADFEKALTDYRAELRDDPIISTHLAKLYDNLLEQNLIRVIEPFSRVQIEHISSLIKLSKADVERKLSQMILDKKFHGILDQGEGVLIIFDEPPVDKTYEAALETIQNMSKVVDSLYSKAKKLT
Sequence of AEA-DA lipid probe targets in Neuro2a cells (Mus musculus, UniProt Q8VE88) (Q8VE88 whole entry): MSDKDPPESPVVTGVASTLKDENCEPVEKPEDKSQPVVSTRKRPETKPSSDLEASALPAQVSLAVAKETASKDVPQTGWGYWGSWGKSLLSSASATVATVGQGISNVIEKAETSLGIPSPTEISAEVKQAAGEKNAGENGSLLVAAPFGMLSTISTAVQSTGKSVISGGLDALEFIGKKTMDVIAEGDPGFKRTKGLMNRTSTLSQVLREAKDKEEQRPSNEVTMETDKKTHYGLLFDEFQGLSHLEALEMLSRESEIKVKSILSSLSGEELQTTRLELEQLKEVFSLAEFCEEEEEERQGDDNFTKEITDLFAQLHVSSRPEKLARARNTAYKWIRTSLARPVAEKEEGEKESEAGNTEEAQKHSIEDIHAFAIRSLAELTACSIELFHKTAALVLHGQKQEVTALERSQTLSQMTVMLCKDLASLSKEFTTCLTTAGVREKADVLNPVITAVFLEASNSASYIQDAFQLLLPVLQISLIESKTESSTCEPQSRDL

## CCCCC/C=C\C/C=C\C/C=C\C/C=C\CCCC(=O)NCCO [AEA, anandamide, reference compound]
[1]; competitor 200 μM
  SILAC ratio H2-L: 1.3
[2]; competitor 200 μM
  SILAC ratio Stip1: 1.3
[3]; competitor 200 μM
  SILAC ratio Mtdh: 1.7
[4]; competitor 200 μM
  SILAC ratio Psmd11: 1.2
[5]; competitor 200 μM
  SILAC ratio, Fam114a2: 1.4
[6]; competitor 200 μM
  SILAC ratio Cisd1: 1.6
[7]; competitor 200 μM
  SILAC ratio Atad3: 1.5
[8]; competitor 200 μM
  SILAC ratio, Ephx1: 2.1
[9]; competitor 200 μM
  SILAC ratio Dctpp1: 1.5

## O=C(/C=C/c1cccnc1)NCCCCC1CCN(C(=O)c2ccccc2)CC1 [FK-866, reference compound]
[1]; competitor 25 μM
  SILAC ratio H2-L: 1.0
[2]; competitor 25 μM
  SILAC ratio Stip1: 1.3
[3]; competitor 25 μM
  SILAC ratio Mtdh: 1.2
[4]; competitor 25 μM
  SILAC ratio Psmd11: 1.3
[5]; competitor 25 μM
  SILAC ratio, Fam114a2: 1.0
[6]; competitor 25 μM
  SILAC ratio Cisd1: 1.1
[7]; competitor 25 μM
  SILAC ratio Atad3: 1.2
[8]; competitor 25 μM
  SILAC ratio, Ephx1: 1.4
[9]; competitor 25 μM
  SILAC ratio Dctpp1: 1.4

## CN1CCN(C(=O)c2c(-c3ccccc3)c3cc([N+](=O)[O-])ccc3n2C)CC1 [KML110, (1-Methyl-5-nitro-3-phenyl-1H-indol-2-yl)(4-methylpiperazin-1-yl)methanone]
[1]; competitor 25 μM
  SILAC ratio H2-L: 1.7
[2]; competitor 25 μM
  SILAC ratio Stip1: 1.6
[3]; competitor 25 μM
  SILAC ratio Mtdh: 1.5
[4]; competitor 25 μM
  SILAC ratio Psmd11: 1.3
[5]; competitor 25 μM
  SILAC ratio, Fam114a2: 2.2
[6]; competitor 25 μM
  SILAC ratio Cisd1: 1.6
[7]; competitor 25 μM
  SILAC ratio Atad3: 1.2
[8]; competitor 25 μM
  SILAC ratio, Ephx1: 3.4
[9]; competitor 25 μM
  SILAC ratio Dctpp1: 1.6

## CN1CCN(C(=O)c2[nH]c3ccc([N+](=O)[O-])cc3c2-c2ccccc2)CC1 [MJN228, (4-Methylpiperazin-1-yl)(5-nitro-3-phenyl-1H-indol-2-yl)methanone]
[1]; competitor 10 μM
  SILAC ratio H2-L: 1.0
[1]; competitor 25 μM
  SILAC ratio H2-L: 1.1
[1]; competitor 50 μM
  SILAC ratio H2-L: 1.1
[1]; competitor 100 μM
  SILAC ratio H2-L: 1.0
[2]; competitor 10 μM
  SILAC ratio Stip1: 1.2
[2]; competitor 25 μM
  SILAC ratio Stip1: 1.3
[2]; competitor 50 μM
  SILAC ratio Stip1: 1.2
[2]; competitor 100 μM
  SILAC ratio Stip1: 1.9
[3]; competitor 10 μM
  SILAC ratio Mtdh: 1.3
[3]; competitor 25 μM
  SILAC ratio Mtdh: 1.5
[3]; competitor 50 μM
  SILAC ratio Mtdh: 1.6
[3]; competitor 100 μM
  SILAC ratio Mtdh: 1.9
[4]; competitor 25 μM
  SILAC ratio Psmd11: 1.3
[5]; competitor 10 μM
  SILAC ratio, Fam114a2: 1.6
[5]; competitor 25 μM
  SILAC ratio, Fam114a2: 3.5
[5]; competitor 50 μM
  SILAC ratio, Fam114a2: 4.1
[5]; competitor 100 μM
  SILAC ratio, Fam114a2: 7.6
[6]; competitor 10 μM
  SILAC ratio Cisd1: 1.3
[6]; competitor 25 μM
  SILAC ratio Cisd1: 1.5
[6]; competitor 50 μM
  SILAC ratio Cisd1: 1.4
[6]; competitor 100 μM
  SILAC ratio Cisd1: 2.4
[7]; competitor 10 μM
  SILAC ratio Atad3: 1.1
[7]; competitor 25 μM
  SILAC ratio Atad3: 1.4
[7]; competitor 50 μM
  SILAC ratio Atad3: 1.3
[7]; competitor 100 μM
  SILAC ratio Atad3: 1.4
[8]; competitor 10 μM
  SILAC ratio, Ephx1: 2.5
[8]; competitor 25 μM
  SILAC ratio, Ephx1: 3.8
[8]; competitor 50 μM
  SILAC ratio, Ephx1: 8.2
[8]; competitor 100 μM
  SILAC ratio, Ephx1: 11.5
[9]; competitor 25 μM
  SILAC ratio Dctpp1: 1.2
[9]; competitor 50 μM
  SILAC ratio Dctpp1: 1.0
[9]; competitor 100 μM
  SILAC ratio Dctpp1: 1.0

## C=CCN(C)CCCCCCOc1ccc(C(=O)c2ccc(Br)cc2)c(F)c1 [Ro 48-8071, reference compound]
[1]; competitor 25 μM
  SILAC ratio H2-L: 0.8
[2]; competitor 25 μM
  SILAC ratio Stip1: 1.0
[3]; competitor 25 μM
  SILAC ratio Mtdh: 1.2
[4]; competitor 25 μM
  SILAC ratio Psmd11: 0.9
[5]; competitor 25 μM
  SILAC ratio, Fam114a2: 1.6
[6]; competitor 25 μM
  SILAC ratio Cisd1: 1.1
[7]; competitor 25 μM
  SILAC ratio Atad3: 1.0
[8]; competitor 25 μM
  SILAC ratio, Ephx1: 2.4
[9]; competitor 25 μM
  SILAC ratio Dctpp1: 0.8
